The text below walks through data of US6979747B2, “Antioxidants, preparation processes and their uses” (Centre National de la Recherche Scientifique (CNRS), priority 1999, dated 2005).

Assay [1] deals with HIV-1 LAI. Description: Antiviral activity in quiescent or PHA-P activated PBMCs infected with HIV-1 LAI. It is filed as cell-based. The settings on record: for decrease of viral replication: PBMCs activated by PHA-P. The procedure: For some experiments, the PBMCs and the PBLs are activated for 48 h with 1 μg/ml of a mitogen, PHA-P (Difco Laboratories). The PBMCs and the PBLs are cultured in medium A (quiescent) or B (activated). The cells are cultured at 37° C. in an atmosphere saturated with moisture under 5% of CO2. The culture supernatants are removed and the culture media are replaced every three or four days. At each renewal of the culture media, the cell viability is evaluated by coloring with trypan blue or by microscopic observation.
(§1) The MDMs were infected with the reference isolate with macrophage tropism, HIV-1/Ba-L. The PBMCs and the PBLs were infected with the reference isolate with lymphocyte tropism HIV-1 LAI. The viral stock were formed by amplifying these strains in vitro using umbilical blood mononucleated cells (UBM(s) preactivated with 1 μg/ml of PHA-P and cultured in medium A supplemented by 20 IU/ml of IL-2. In order to remove the soluble factors, such as cytokines, the culture supernatants were ultracentrifuged at 360 000 g for 5 min, and the pellets were resuspended in RPMI 1640. The viral stocks thus formed were subsequently titred using PBMCs activated with PHA-P. The TCID50s (50% Tissue Culture Infectious Dose) were calculated using the Kärber formula.
(§2) A million MDMs were infected with 10 000 TCID50s of the HIV-1/Ba-L strain. This amount of virus corresponds to a multiplicity of infection (m.o.i.) equal to 0.01. The excess of virus is removed 24 h after by washing with cells using RPMI 1640. The PBLs and the PBMCs were infected with 10 000 TCID50s of the HIV-1 LAI strain (moi=0.01). The cells were washed at the end of the second day of infection.
(§3) The viral replication is measured by assaying the RT activity in the culture supernatants according to the technique described by F. Rey et al. (Biochem. Biophys. Res. Comm., 1984, 121, 126-133). The radioactivity incorporated during the extension of the complementary strand of a poly-rA synthetic matrix in the presence of an oligo-dT12-18 primer and of a radiolabeled substrate, [^3H-methyl]thymidine-5′-triphosphate ([^3H]TPP), makes it possible to assay the enzymatic activity of RT. 400 μl of supernatant are ultracentrifuged at 360 000 g for 5 min. The RT is released by lysis of the viral pellet in 20 μl of NTE-Triton (100 mM NaCl, 10 mM Tris, 1 mM EDTA, 0.1% Triton X-100). These 20 μl are subsequently incubated with 40 μl of the following reaction mixture: 62.5 mM Tris, pH 7.8; 25 mM KCl; 6.25 mM MgCl2; 1.25 mM dithiothreitol (DTT); 2.5×10^−3 ODU oligo-dT12-18 and poly-rA, 5.55×10^−3 TBq {^3H]TTP. After one hour at 37° C., the enzymatic reaction is halted and the newly synthesized strands are precipitated for 20 min at 4° C. by the addition of 1 ml of sodium pyrophosphate (NaPP), of 50 μl of yeast DNA (0.1 mg/ml in 5% trichluoroacetic acid (TCA)), and of 4 ml of 20% TCA. The mixture is filtered using a cellulose acetate membrane (Millipore) which retains the radiolabeled poly-dT chains. The filter is washed using 20 ml of 5% TCA and the residual water is removed by addition of 25 μl of 70% ethanol. The filter is dried in an oven for 10 minutes at 80° C. and is then introduced into vials containing 8 ml of liquid scintillant. The β radioactivity is quantified by means of a scintillation counter (Packard Bell). The results are expressed in pM of [^3H]-TMP incorporated/h/ml of supernatant or, more simply, in cpm/h/ml.
The PBMCs, quiescent or activated by PHA-P, were infected by the reference strain with lymphocyte tropism HIV-1 LAI. All the culturings were carried out in parallel and the drugs were maintained throughout the culturing.

Assay [2] concerns GSH. Description: Intracellular GSH in MDMs infected with HIV-1/Ba-L. It is filed as cell-based, human. The conditions noted are these: MDMs with GSH deficiency after infection with HIV-1/Ba-L. The procedure:
The intracellular GSH was assayed by means of the assay kit sold by Cayman. This method for assaying glutathione is an adaptation of that described by O. W. Griffith et al. (1980).
(§4) The compound I-152 and its derivatives are prepared extemporaneously by being dissolved in dimethyl sulfoxide (DMSO) at the concentration of 100 mM. They are subsequently stored at −20° C. after having been diluted 10 fold in phosphate buffer (PBS).

Assay [3] deals with HIV-1/Ba-L. As to the kind of experiment: Antiviral activity in MDM cultures infected with HIV-1/Ba-L (RT activity in culture supernatants). The conditions noted are these: for viral replication (in words): treatment of MDMs 7 days after infection. It is filed as cell-based. The procedure: A million monocytes in 1 ml of culture medium A are distributed in each well of a 48 well plate (Becton-Dickinson). The monocytes are left to differentiate into macrophages for 7 days. The macrophages thus differentiated are maintained in culture in medium A.
as §1, §2, §3
The 50% effective doses (ED50) are calculated from the cumulative RT activities using the software “Dose-effects analysis with microcomputers” developed by J. Chou & T. C. Chou.

Assay [4] relates to TNF-α. As to the kind of experiment: Synthesis of TNF-α in MDMs stimulated with LPS and IFN-γ. The assay is classed as cell-based, human. The conditions noted are these: MDMs stimulated with LPS (1 μg/ml) and IFN-γ (100 IU/ml). The procedure: The synthesis of tumor necrosis factor (TNF-α) was […] in the MDM culture supernatants using the calorimetric kit sold by Cayman.
as §4
Tumor necrosis factor (TNF-α), like the oxygen-comprising or nitrogen-comprising radical components, plays a major role in the apoptotic processes associated with infection the HIV. Furthermore, the radical components can promote the synthesis of this proinflammatory cytokine. For this reason, the effects of I-152 in decreasing the synthesis of TNF-α were thus looked for in MDMs stimulated by a bacterial lipopolysaccharide and interferon (IFN-γ).

The mark [5] stands for this setting: ratio of inhibiting concentrations, MDMs, HIV-1/Ba-L.

The inhibition is the relative decrease from the control value, in per cent. `CC(=O)N[C@@H](CS)C(=O)NCCSC(C)=O` [I-152, N-(N-acetyl-L-cysteinyl)-S-acetylcysteamine]: in assay [1] (Human immunodeficiency virus 1, PBMC, quiescent PBMCs, 125 μM, read-out: inhibition of viral replication), the inhibition at 125 µM is 88%. In assay [1] (Human immunodeficiency virus 1, PBMC, quiescent PBMCs, 250 μM, read-out: inhibition of viral replication), the inhibition at 250 µM is 97%. In addition, the “decrease of viral replication” value in assay [1] (125 μM) amounted to 25%; in assay [1] (250 μM), 42%. Further, the “regeneration of intracellular GSH level (in words)” value in assay [2] is “capable of regenerating an abnormally low intracellular level”. The EC50 in assay [3] (Human immunodeficiency virus 1, BAL, MDMs infected with 10 000 TCID50s HIV-1/Ba-L (m.o.i. 0.01), read-out: inhibiting concentration (50% effective dose)) worked out at 50 µM. Further, the “antiviral activity (in words)” value in assay [3] (MDMs infected with HIV-1/Ba-L, compounds dissolved in medium A) was “strong antiviral activity superior to that of NAC or of MEA”; in assay [3] (second series, compounds dissolved in DMSO then diluted, MDMs, HIV-1/Ba-L), “the most effective in inhibiting viral replication”. Further, in assay [3] (setting [5]), the “times more effective than MEA” value worked out at 6 times. Besides, the “times more effective than NAC” value in assay [3] (setting [5]) turned out to be 188 times. Also, the “viral replication (in words)” value in assay [3] (250 μM) was “ineffective”; in assay [3] (500 μM), “viral replication is extinguished”. Besides, the “synthesis of TNF-α (in words)” value in assay [4] was “inhibits the synthesis of TNF-α”.
